Experimental data published in patent US6706663B2, “Herbicidal 3-heterocyclic substituted benzisothiazole and benzisoxazole compounds” (Wyeth, priority 2000, dated 2004).

What was measured:
[1] = system: ABUTH (Abutilon theophrasti); assay: Postemergence herbicidal evaluation; format: in vivo, Medic.; conditions: postemergence
Procedure: (§1) In the tests, seedling plants are grown in jiffy flats for about two weeks. […] After spraying, the plants are placed on greenhouse benches and are cared for in accordance with conventional greenhouse procedures. From four to five weeks after treatment, the seedling plants are examined and rated according to the rating system set forth below. Where more than one test is involved for a given compound, the data are averaged.
(§2) Results of herbicide evaluation are expressed on a rating scale (0-9). The scale is based upon a visual observation of plant stand, vigor, malformation, size, chlorosis and overall plant appearance as compared with a control.

[2] = system: AMBEL (Ambrosia artemisifolia); assay: Postemergence herbicidal evaluation; format: in vivo, L.; conditions: postemergence
Procedure: as §1, §2

[3] = system: CASOB (Cassia obtusifolia); assay: Postemergence herbicidal evaluation; format: in vivo, L.; conditions: postemergence
Procedure: as §1, §2

[4] = system: CHEAL (Chenopodium album); assay: Postemergence herbicidal evaluation; format: in vivo, L.; conditions: postemergence
Procedure: as §1, §2

GALAP (Galium aparine) [5] = assay: Postemergence herbicidal evaluation; format: in vivo; conditions: postemergence
Procedure: as §1, §2

[6] = system: IPOHE (Ipomoea hederacea); assay: Postemergence herbicidal evaluation; format: in vivo, (L.) Jacq.; conditions: postemergence
Procedure: as §1, §2

[7] = system: ECHCG (Echinochloa crus-galli); assay: Postemergence herbicidal evaluation; format: in vivo, (L.) Beau; conditions: postemergence
Procedure: as §1, §2

SETVI (Setaria viridis) [8] = assay: Postemergence herbicidal evaluation; format: in vivo, (L.) Beau; conditions: postemergence
Procedure: In the tests, seedling plants are grown in jiffy flats for about two weeks. The test compounds are dispersed in 50/50 acetone/water mixtures containing 0.5% TWEEN® 20, a polyoxyethylene sorbitan monolaurate surfactant of Atlas Chemical Industries, in sufficient quantities to provide the equivalent of about 0.0040 kg to 1.000 kg per hectare of active compound when applied to the plants through a spray nozzle operating at 40 psi for a predetermined time. After spraying, the plants are placed on greenhouse benches and are cared for in accordance with conventional greenhouse procedures. From four to five weeks after treatment, the seedling plants are examined and rated according to the rating system set forth below. Where more than one test is involved for a given compound, the data are averaged.
as §2

[9] = system: GLXMAW (Soybean, Williams); assay: Postemergence herbicidal evaluation; format: in vivo, Glycine max, (L.) Merr. cv Williams; conditions: postemergence
Procedure: as §1, §2

ORYSAT (Rice, Tebonnet) [10] = assay: Postemergence herbicidal evaluation; format: in vivo, Oryza sativa, (L.) Tebonnet; conditions: postemergence
Procedure: as §1, §2

[11] = system: TRZAWR (Wheat, Winter, cv Riband); assay: Postemergence herbicidal evaluation; format: in vivo, Triticum aestivum; conditions: postemergence
Procedure: as §1, §2

ZEAMX (Corn, Field) [12] = assay: Postemergence herbicidal evaluation; format: in vivo, Zea mays, L.; conditions: postemergence
Procedure: as §1, §2

[13] = system: ABUTH (Abutilon theophrasti); assay: Preemergence herbicidal evaluation; format: in vivo, Medic.; conditions: rated 4-5 weeks after treatment
Excerpt: as §2
(§3) The preemergence herbicidal activity of the test compounds of the present invention is exemplified by the following tests in which the seeds of a variety of monocotyledonous and dicotyledonous plants are separately mixed with potting soil and planted on top of approximately one inch of soil in separate pint cups. […] The treated cups are then placed on greenhouse benches, watered and cared for in accordance with conventional greenhouse procedures. From four to five weeks after treatment, the tests are terminated and each cup is examined and rated according to the rating system provided in Example 87. The plant species used and the compounds evaluated are the same as those shown in Example 87.

[14] = system: AMBEL (Ambrosia artemisifolia); assay: Preemergence herbicidal evaluation; format: in vivo, L.; conditions: rated 4-5 weeks after treatment
Excerpt: as §2, §3

[15] = system: CASOB (Cassia obtusifolia); assay: Preemergence herbicidal evaluation; format: in vivo, L.; conditions: rated 4-5 weeks after treatment
Excerpt: as §2, §3

[16] = system: CHEAL (Chenopodium album); assay: Preemergence herbicidal evaluation; format: in vivo, L.; conditions: rated 4-5 weeks after treatment
Excerpt: as §2, §3

GALAP (Galium aparine) [17] = assay: Preemergence herbicidal evaluation; format: in vivo; conditions: rated 4-5 weeks after treatment
Excerpt: as §2, §3

[18] = system: IPOHE (Ipomoea hederacea); assay: Preemergence herbicidal evaluation; format: in vivo, (L.) Jacq.; conditions: rated 4-5 weeks after treatment
Excerpt: as §2, §3

[19] = system: ECHCG (Echinochloa crus-galli); assay: Preemergence herbicidal evaluation; format: in vivo, (L.) Beau; conditions: rated 4-5 weeks after treatment
Excerpt: as §2, §3

SETVI (Setaria viridis) [20] = assay: Preemergence herbicidal evaluation; format: in vivo, (L.) Beau; conditions: rated 4-5 weeks after treatment
Excerpt: as §2, §3

[21] = system: GLXMAW (Soybean, Williams); assay: Preemergence herbicidal evaluation; format: in vivo, Glycine max, (L.) Merr. cv Williams; conditions: rated 4-5 weeks after treatment
Excerpt: as §2, §3

ORYSAT (Rice, Tebonnet) [22] = assay: Preemergence herbicidal evaluation; format: in vivo, Oryza sativa, (L.) Tebonnet; conditions: rated 4-5 weeks after treatment
Excerpt: as §2, §3

[23] = system: TRZAWR (Wheat, Winter, cv Riband); assay: Preemergence herbicidal evaluation; format: in vivo, Triticum aestivum; conditions: rated 4-5 weeks after treatment
Excerpt: as §2, §3

ZEAMX (Corn, Field) [24] = assay: Preemergence herbicidal evaluation; format: in vivo, Zea mays, L.; conditions: rated 4-5 weeks after treatment
Excerpt: as §2, §3

[25] = system: ECHORC (Echinochloa oryzoides); assay: Flooded paddy, preemergence weed control; format: in vivo, Echinochloa oryzoides (Ard.) Fritsch.; conditions: rated 3-4 weeks after treatment, 0-9 rating scale
Procedure: as §2
(§4) Preemergence herbicidal activity under flooded paddy conditions is determined as follows: plant seeds or propagating organs are planted in the top 0.5 cm of silt loam soil in 32 oz. plastic containers with a diameter of 10.5 cm and no drainage holes. Water is added to these containers and maintained at 1.5 to 3 cm above the soil surface for the duration of the experiment. […] The treated containers are placed on greenhouse benches and cared for in accordance with conventional greenhouse procedures.

CYPIR (Cyperus iria) = assay: Flooded paddy, preemergence weed control; format: in vivo; conditions: rated 3-4 weeks after treatment, 0-9 rating scale
Procedure: as §2, §4

[26] = system: MOOVA (Monochoria vaginalis); assay: Flooded paddy, preemergence weed control; format: in vivo, Presl.; conditions: rated 3-4 weeks after treatment, 0-9 rating scale
Procedure: as §2, §4

[27] = system: SAGPY (Sagittaria pygmaea); assay: Flooded paddy, preemergence weed control; format: in vivo, L.; conditions: rated 3-4 weeks after treatment, 0-9 rating scale
Procedure: as §2, §4

ORYSAT (Rice, Tebonnet) [28] = assay: Flooded paddy, post-transplant rice tolerance; format: in vivo, Oryza sativa, (L.) Tebonnet; conditions: flooded paddy, post-transplant rice, rated 3-4 weeks after treatment, 0-9 rating scale
Procedure: as §2
The tolerance of transplanted rice to post-transplanted herbicide application is determined as follows: two ten-day-old rice seedlings (cv. Tebonnet) are transplanted into silt loam soil in 32 oz. plastic containers with a diameter of 10.5 cm and no drainage holes. After transplanting, the containers are flooded and the water level is maintained at 1.5 to 3 cm above the soil surface. […] The treated containers are placed on greenhouse benches, watered such that the water level is maintained as stated above, and cared for in accordance with conventional greenhouse procedures.

Cn1c(C(F)(F)F)cc(=O)n(-c2ccc3snc(C4OCC(CBr)O4)c3c2)c1=O (centres unmarked) [Compound 79, 3-[3-[4-(bromomethyl)-1,3-dioxolan-2-yl]-1,2-benzisothiazol-5-yl]-1-methyl-6-(trifluoromethyl)uracil]
2.5: TRZAWR herbicidal rating ([11]; rate 0.0620 kg/ha)
9.0: ABUTH herbicidal rating ([1]; rate 0.0620 kg/ha) | AMBEL herbicidal rating ([2]; rate 0.0620 kg/ha) | CHEAL herbicidal rating ([4]; rate 0.0620 kg/ha) | Preemergence herbicidal rating ABUTH ([13]; Rate 0.2500 kg/ha) | Preemergence herbicidal rating AMBEL ([14]; Rate 0.2500 kg/ha) | Preemergence herbicidal rating CASOB ([15]; Rate 0.2500 kg/ha) | Preemergence herbicidal rating CHEAL ([16]; Rate 0.2500 kg/ha) | Preemergence herbicidal rating GALAP (GALAP (Galium aparine) [17]; Rate 0.2500 kg/ha) | Preemergence herbicidal rating ECHCG ([19]; Rate 0.2500 kg/ha) | Preemergence herbicidal rating SETVI (SETVI (Setaria viridis) [20]; Rate 0.2500 kg/ha) | Preemergence herbicidal rating GLXMAW ([21]; Rate 0.2500 kg/ha) | herbicidal rating, ECHORC ([25]; rate 0.1250 kg/ha) | herbicidal rating, CYPIR (CYPIR (Cyperus iria); rate 0.1250 kg/ha) | herbicidal rating, MOOVA ([26]; rate 0.1250 kg/ha)
4.0: GALAP herbicidal rating (GALAP (Galium aparine) [5]; rate 0.0620 kg/ha) | ECHCG herbicidal rating ([7]; rate 0.0620 kg/ha)
6.0: CASOB herbicidal rating ([3]; rate 0.0620 kg/ha) | SETVI herbicidal rating (SETVI (Setaria viridis) [8]; rate 0.0620 kg/ha) | GLXMAW herbicidal rating ([9]; rate 0.0620 kg/ha)
3.5: ORYSAT herbicidal rating (ORYSAT (Rice, Tebonnet) [10]; rate 0.0620 kg/ha) | ZEAMX herbicidal rating (ZEAMX (Corn, Field) [12]; rate 0.0620 kg/ha)
3.0: herbicidal rating, SAGPY ([27]; rate 0.1250 kg/ha)
7.0: Preemergence herbicidal rating IPOHE ([18]; Rate 0.2500 kg/ha) | Preemergence herbicidal rating ZEAMX (ZEAMX (Corn, Field) [24]; Rate 0.2500 kg/ha) | herbicidal rating, ORYSAT (rice tolerance) (ORYSAT (Rice, Tebonnet) [28]; rate 0.1250 kg/ha)
8.0: IPOHE herbicidal rating ([6]; rate 0.0620 kg/ha) | Preemergence herbicidal rating ORYSAT (ORYSAT (Rice, Tebonnet) [22]; Rate 0.2500 kg/ha) | Preemergence herbicidal rating TRZAWR ([23]; Rate 0.2500 kg/ha)

C[C@@H]1OC(c2nsc3cc(F)c(-n4c(=O)cc(C(F)(F)F)n(C)c4=O)cc23)O[C@@H]1C (stereo partly drawn) [Compound 63, 3-[3-[(4R,5S)-4,5-dimethyl-1,3-dioxolan-2-yl]-6-fluoro-1,2-benzisothiazol-5-yl]-1-methyl-6-(trifluoromethyl)uracil]
3.0: herbicidal rating, MOOVA ([26]; rate 0.0080 kg/ha) | herbicidal rating, SAGPY ([27]; rate 0.0080 kg/ha)
5.5: ZEAMX herbicidal rating (ZEAMX (Corn, Field) [12]; rate 0.0320 kg/ha)
4.0: herbicidal rating, CYPIR (CYPIR (Cyperus iria); rate 0.0080 kg/ha)
6.0: ECHCG herbicidal rating ([7]; rate 0.0320 kg/ha) | ORYSAT herbicidal rating (ORYSAT (Rice, Tebonnet) [10]; rate 0.0620 kg/ha) | TRZAWR herbicidal rating ([11]; rate 0.0620 kg/ha) | ZEAMX herbicidal rating (ZEAMX (Corn, Field) [12]; rate 0.0620 kg/ha)
9.0: ABUTH herbicidal rating ([1]; rate 0.0320 kg/ha) | ABUTH herbicidal rating ([1]; rate 0.0620 kg/ha) | AMBEL herbicidal rating ([2]; rate 0.0320 kg/ha) | AMBEL herbicidal rating ([2]; rate 0.0620 kg/ha) | CASOB herbicidal rating ([3]; rate 0.0320 kg/ha) | CASOB herbicidal rating ([3]; rate 0.0620 kg/ha) | CHEAL herbicidal rating ([4]; rate 0.0320 kg/ha) | CHEAL herbicidal rating ([4]; rate 0.0620 kg/ha) | GALAP herbicidal rating (GALAP (Galium aparine) [5]; rate 0.0320 kg/ha) | GALAP herbicidal rating (GALAP (Galium aparine) [5]; rate 0.0620 kg/ha) | IPOHE herbicidal rating ([6]; rate 0.0320 kg/ha) | IPOHE herbicidal rating ([6]; rate 0.0620 kg/ha) | SETVI herbicidal rating (SETVI (Setaria viridis) [8]; rate 0.0620 kg/ha) | GLXMAW herbicidal rating ([9]; rate 0.0620 kg/ha) | Preemergence herbicidal rating ABUTH ([13]; Rate 0.0620 kg/ha) | Preemergence herbicidal rating AMBEL ([14]; Rate 0.0620 kg/ha) | Preemergence herbicidal rating CASOB ([15]; Rate 0.0620 kg/ha) | Preemergence herbicidal rating CHEAL ([16]; Rate 0.0620 kg/ha) | Preemergence herbicidal rating GALAP (GALAP (Galium aparine) [17]; Rate 0.0620 kg/ha) | Preemergence herbicidal rating IPOHE ([18]; Rate 0.0620 kg/ha) | Preemergence herbicidal rating ECHCG ([19]; Rate 0.0620 kg/ha) | Preemergence herbicidal rating SETVI (SETVI (Setaria viridis) [20]; Rate 0.0620 kg/ha) | Preemergence herbicidal rating GLXMAW ([21]; Rate 0.0620 kg/ha) | herbicidal rating, ECHORC ([25]; rate 0.0080 kg/ha) | herbicidal rating, ECHORC ([25]; rate 0.0320 kg/ha) | herbicidal rating, ECHORC ([25]; rate 0.1250 kg/ha) | herbicidal rating, CYPIR (CYPIR (Cyperus iria); rate 0.0320 kg/ha) | herbicidal rating, CYPIR (CYPIR (Cyperus iria); rate 0.1250 kg/ha) | herbicidal rating, MOOVA ([26]; rate 0.0320 kg/ha) | herbicidal rating, MOOVA ([26]; rate 0.1250 kg/ha) | herbicidal rating, SAGPY ([27]; rate 0.1250 kg/ha) | herbicidal rating, ORYSAT (rice tolerance) (ORYSAT (Rice, Tebonnet) [28]; rate 0.0320 kg/ha) | herbicidal rating, ORYSAT (rice tolerance) (ORYSAT (Rice, Tebonnet) [28]; rate 0.1250 kg/ha)
7.0: ECHCG herbicidal rating ([7]; rate 0.0620 kg/ha) | SETVI herbicidal rating (SETVI (Setaria viridis) [8]; rate 0.0320 kg/ha) | Preemergence herbicidal rating TRZAWR ([23]; Rate 0.0620 kg/ha) | herbicidal rating, SAGPY ([27]; rate 0.0320 kg/ha) | herbicidal rating, ORYSAT (rice tolerance) (ORYSAT (Rice, Tebonnet) [28]; rate 0.0080 kg/ha)
5.0: ORYSAT herbicidal rating (ORYSAT (Rice, Tebonnet) [10]; rate 0.0320 kg/ha) | TRZAWR herbicidal rating ([11]; rate 0.0320 kg/ha)
6.5: GLXMAW herbicidal rating ([9]; rate 0.0320 kg/ha)
8.0: Preemergence herbicidal rating ORYSAT (ORYSAT (Rice, Tebonnet) [22]; Rate 0.0620 kg/ha) | Preemergence herbicidal rating ZEAMX (ZEAMX (Corn, Field) [24]; Rate 0.0620 kg/ha)
